# Like-named read-outs stand apart in the source and are kept apart here.
# Legend:
# Format in all cases: cell-based
# [1] = tested on: Yersinia enterocolitica; assay: MIC by agar dilution (NCCLS M7-A4), 288 enteropathogenic isolates, eight quinolones; settings: Yersinia enterocolitica (n = 22)
# [2] = tested on: Aeromonas spp.; assay: as above; settings: Aeromonas spp. (n = 16)
# [3] = tested on: Haemophilus influenzae; assay: MIC by agar dilution (NCCLS), 411 isolates Buenos Aires 1998-99; settings: Haemophilus influenzae (n = 65)
# [4] = tested on: Moraxella catarrhalis; assay: as above
# [5] = tested on: Moraxella catarrhalis; assay: MIC by NCCLS reference broth microdilution, 450 respiratory tract pathogens
# [6] = tested on: Klebsiella pneumoniae; assay: as above; settings: for MIC50 / MIC90: Klebsiella pneumoniae
# [7] = tested on: Haemophilus influenzae; assay: MIC by two-fold serial agar dilution, Sensitivity Disk agar-N (Kitasato isolates); settings: Haemophilus influenzae (24)
# [8] = tested on: Staphylococcus aureus; assay: MIC by NCCLS broth microdilution, 1100 Japanese clinical isolates 1997-1998; settings: for MIC: Staphylococcus aureus quinolone resistant, read-out: MIC
# [9] = tested on: Staphylococcus epidermidis; assay: as above; settings: for MIC50 / MIC90: Staphylococcus epidermidis
# [10] = tested on: Streptococcus pyogenes; assay: as above; settings: Streptococcus pyogenes (n=51)
# [11] = tested on: Enterococcus gallinarum; assay: as above; settings: Enterococcus gallinarum, GALLINARUM, Enterococcus gallinarum (vanC1), read-out: MIC
# [12] = tested on: Citrobacter freundii; assay: as above
# [13] = tested on: Salmonella spp.; assay: as above; settings: Salmonella spp. (n=29)
# [14] = tested on: Salmonella spp.; assay: MIC by agar dilution (NCCLS M7-A4), 288 enteropathogenic isolates, gemifloxacin and 15 other antimicrobials; settings: for MIC (mg/L) Range: Salmonella spp. N= 106
# [15] = tested on: Streptococcus pneumoniae; assay: MIC by E-test (broth microdilution for gemifloxacin), 107 pneumococcal carrier isolates, Athens 1998; settings: E-test; for MIC50 / MIC90: Streptococcus pneumoniae; for MIC50: read-out: MIC50; for MIC90: read-out: MIC90
# Protocol: Susceptibility testing was performed by agar dilution or epsilometer method (E-test), as recommended by the NCCLS. […] The susceptibility profiles of the strains were assessed using the Epsilometer method (E-test). The isolates were subdivided into two groups according to their penicillin susceptibility patterns (penicillin-susceptible and penicillin-intermediate.
# [16] = tested on: Staphylococcus aureus; assay: MIC by agar macrodilution (NCCLS), 373 Gram positive isolates, Athens 1998; settings: Methicillin-susceptible Staphylococcus aureus (n = 85)
# [17] = extended spectrum β-lactamase negative (n = 30)
# [18] = extended spectrum β-lactamase positive (n = 20)
# [19] = Staphylococcus aureus, Staphylococcus aureus oxacillin resistant (n=57)
# [20] = Staphylococcus epidermidis oxacillin resistant (n=43)
# [21] = Staphylococcus epidermidis oxacillin susceptible (n=35)
# [22] = S. hadar(2), isolates with MICs for ciprofloxacin ≥[…], read-out: MIC
# [23] = S. newport(1), isolate with MIC for ciprofloxacin ≥[…], read-out: MIC
# [24] = Salmonella, S. tshiongwe(1), isolate with MIC for ciprofloxacin ≥[…], read-out: MIC
# [25] = Salmonella, read-out: MIC (mg/L) 50%, Salmonella spp. N= 106
# [26] = Salmonella, read-out: MIC (mg/L) 90%, Salmonella spp. N= 106
# [27] = Penicillin-intermediate S. pneumoniae (n = 24)
# [28] = Penicillin-susceptible S. pneumoniae (n = 107)
compound,measurement,setting,value
"C[C@H]1COc2c(N3CCN(C)CC3)c(F)cc3c(=O)c(C(=O)O)cn1c23 [Levofloxacin, levofloxacin]",% Susceptible,[1],100%
same,MIC50,[1],0.06 µg/mL
same,MIC90,[1],0.06 µg/mL
same,MIC Range,[1],0.03 to 0.5 µg/mL
same,% Susceptible,[2],100%
same,MIC50,[2],≤ 0.015 µg/mL
same,MIC90,[2],≤ 0.015 µg/mL
same,MIC Range,[2],≤0.015 to 0.06 µg/mL
same,MIC90,[3],0.016 µg/mL
same,MIC Range,[3],≤0.004 to 0.25 µg/mL
same,MIC Range,[4]; Moraxella catarrhalis (n = 59),≤0.004 to 0.03 µg/mL
same,MIC90,"[4]; Moraxella catarrhalis (n = 59), read-out: MIC90",0.03 µg/mL
same,MIC,[5]; Moraxella catarrhalis (n = 50),0.00375 to 0.03 µg/mL
same,MIC50,[5]; Moraxella catarrhalis (n = 50),0.015 µg/mL
same,MIC90,[5]; Moraxella catarrhalis (n = 50),0.03 µg/mL
same,MIC,[5]; β-lactamase negative (n = 13),0.00375 to 0.03 µg/mL
same,MIC50,[5]; β-lactamase negative (n = 13),0.03 µg/mL
same,MIC90,[5]; β-lactamase negative (n = 13),0.03 µg/mL
same,MIC,[5]; β-lactamase positive (n = 37),0.00375 to 0.03 µg/mL
same,MIC50,[5]; β-lactamase positive (n = 37),0.015 µg/mL
same,MIC90,[5]; β-lactamase positive (n = 37),0.03 µg/mL
same,MIC Range,[6]; Klebsiella pneumoniae (n = 50),0.15 to 1 µg/mL
same,MIC50,[6]; Klebsiella pneumoniae (n = 50),0.06 µg/mL
same,MIC90,[6]; Klebsiella pneumoniae (n = 50),0.5 µg/mL
same,MIC50,[6]; [17],0.06 µg/mL
same,MIC90,[6]; [17],0.12 µg/mL
same,MIC50,[6]; [18],0.5 µg/mL
same,MIC90,[6]; [18],0.5 µg/mL
same,MIC Range,[6]; [17],0.015 to 0.5 µg/mL
same,MIC Range,[6]; [18],0.06 to 1 µg/mL
same,MIC50,[7],0.031 µg/mL
same,MIC90,[7],0.031 µg/mL
same,MIC Range,[7],0.016 to 0.031 µg/mL
same,MIC Range,[8]; Staphylococcus aureus oxacillin susceptible (n=41),0.125 to 1 µg/mL
same,MIC50,[8]; [19],4 µg/mL
same,MIC90,[8]; [19],64 µg/mL
same,MIC50,"[8]; Staphylococcus aureus, Staphylococcus aureus oxacillin susceptible (n=41)",0.25 µg/mL
same,MIC,"[8]; Staphylococcus aureus, strain TMS3",> 128 µg/mL
same,MIC,"[8]; Staphylococcus aureus, strain TMS4",16 µg/mL
same,MIC,"[8]; Staphylococcus aureus, strain TMS5",4 µg/mL
same,MIC,"[8]; Staphylococcus aureus, strain TMS6",2 µg/mL
same,MIC Range,[9]; [20],0.25 to 16 µg/mL
same,MIC Range,[9]; [21],0.063 to 8 µg/mL
same,MIC50,[9]; [20],4 µg/mL
same,MIC90,[9]; [20],8 µg/mL
same,MIC50,[9]; [21],0.25 µg/mL
same,MIC90,[9]; [21],4 µg/mL
same,MIC90,[10],2 µg/mL
same,MIC Range,[10],0.5 to 2 µg/mL
same,MIC,[11]; strain TMS1,1 µg/mL
same,MIC,[11]; strain TMS2,2 µg/mL
same,MIC,[11]; strain TMS3,1 µg/mL
same,MIC,[11]; strain TMS4,0.5 µg/mL
same,MIC50,[12]; Citrobacter freundii,0.125 µg/mL
same,MIC90,[12]; Citrobacter freundii (n=39),1 µg/mL
same,MIC Range,[12]; Citrobacter freundii (n=39),0.016 to 1 µg/mL
same,MIC50,[13],0.063 µg/mL
same,MIC90,[13],0.063 µg/mL
same,MIC Range,[13],0.032 to 0.063 µg/mL
same,MIC,[14]; [22],1 mg/L
same,MIC,[14]; [23],1 mg/L
same,MIC,"[14]; S. virchow(2), isolates with MICs for ciprofloxacin ≥[…], read-out: MIC",0.25 mg/L
same,MIC (mg/L) Range,[14],0.06 to 1 mg/L
same,MIC,[14]; [24],1 mg/L
same,MIC,[14]; [25],0.06 mg/L
same,MIC,[14]; [26],0.25 mg/L
"CC1COc2c(N3CCN(C)CC3)c(F)cc3c(=O)c(C(=O)O)cn1c23 (stereo not shown) [Ofloxacin, ofloxacin]",% Susceptible,[1],100%
same,MIC50,[1],0.12 µg/mL
same,MIC90,[1],0.12 µg/mL
same,MIC Range,[1],0.03 to 0.5 µg/mL
same,% Susceptible,[2],100%
same,MIC50,[2],≤ 0.015 µg/mL
same,MIC90,[2],0.03 µg/mL
same,MIC Range,[2],≤0.015 to 0.12 µg/mL
same,MIC90,[3],0.06 µg/mL
same,MIC Range,[3],0.008 to 0.25 µg/mL
same,MIC90,[4]; Moraxella catarrhalis,0.125 µg/mL
same,MIC Range,[4]; Moraxella catarrhalis (n = 59),0.06 to 0.125 µg/mL
same,MIC Range,"[15]; Penicillin-intermediate S. pneumoniae (n = 24), in µg/mL (unit assumed)",0.75-6
same,MIC50,[15]; [27],2 µg/mL
same,MIC90,[15]; [27],3 µg/mL
same,MIC50,[15]; [28],2 µg/mL
same,MIC90,[15]; [28],4 µg/mL
same,MIC Range,[16],0.25 to 32 µg/mL
same,MIC90,[16]; read-out: MIC90,1 µg/mL
same,MIC,[14]; [22],2 mg/L
same,MIC,[14]; [23],2 mg/L
same,MIC (mg/L) Range,[14],0.06 to 2 mg/L
same,MIC,[14]; [24],2 mg/L
same,MIC,[14]; [25],0.12 mg/L
same,MIC,[14]; [26],0.5 mg/L

# Reference: patent EP1561465A2, “Methods of use of fluoroquinolone compounds against bacteria” (LG Life Sciences, Ltd., priority 1999, dated 2001)
